# Experimental data reported in US10968176B2, “Pyrrolidone derivatives, oligomers and polymers” (NanoSynthons LLC, priority 2014, dated 2021).
# Like-named read-outs stand apart in the source and are kept apart here.
# Test: Fluorescence excitation/emission maxima and relative response per gram (luminescence spectrometer)
# Assay type: physicochemical
# Experimental: The appropriate alkyl or aryl amine (0.05 moles) was weighed into a 100 mL round-bottom flask equipped with a magnetic stirrer and containing 15 mL of dry methanol. While stirring, the appropriate dialkyl/diaryl itaconate (0.05 moles/primary amine moiety) dissolved in 15 mL of dry methanol was added dropwise over a period of 10 min. In some cases, a moderate exotherm was noted. The reaction was allowed to stir at RT for 1 h followed by refluxing for 8-10 h. The final product was obtained by removal of the solvent with a Buchi roto-evaporator to give a solid, liquid or syrup with yields ranging from 75-98%. See Table 2 in the Examples and FIGS. 3A-3B for their structures. These final products were characterized by FTIR, ^1H—, ^13C-NMR. Their UV-vis/fluorescence properties were evaluated with a fluorospectrometer (Spectramax from Molecular Devices) yielding data as described in Table 2 in the Examples.
# Itaconic acid (Sigma-Aldrich) (0.05 moles/primary amine moiety) was weighed into a 100 mL round-bottom flask equipped with a magnetic stirrer. While stirring, the appropriate alkyl or aryl amine (0.05 moles) was added dropwise over a period of 10 min. […] The flask and reaction mixture was surmounted by a reflux condenser and immersed in an oil bath and heated at 125° C. for 2-5 h. The formation of water condensate from the reaction can be noticed in the condenser. A 25 mL portion of dry methanol is then added and the reaction mixture is refluxed for 1 h. Removal of solvent on a Buchi roto-evaporator produces the desired pyrrolidone product as an oil, syrup or solid in yields ranging from 59-95%. These final products were characterized by using a Thomas-Hoover capillary melting point apparatus, FTIR and ^1H—, ^13C-NMR. Their UV-vis/fluorescence properties were evaluated with a fluorescence spectrometer (Spectramax from Molecular Devices) yielding data as described in Table 2.
# Fluorescence data was acquired with a Perkin-Elmer LS50B Luminescence spectrometer. Constant slit widths (Both excitation and emission—3 nm) were used and the concentrations were adjusted to give on scale emission responses. Emission responses were divided by concentration to give response per gram and multiplied by a scaling factor chosen to set the relative response of the standard, fluorescein-Na, to 1,000,000.
# [1] = scaled so that fluorescein-Na = 1,000,000
# [2] = peak 1, fluorescein-Na = 1,000,000
# [3] = peak 2, fluorescein-Na = 1,000,000
SMILES,Emission Max,Excitation Max,Relative Response/g [1],Emission Max (peak 1),Excitation Max (peak 1),Relative Response/g [2],Emission Max (peak 2),Excitation Max (peak 2),Relative Response/g [3]
COC(=O)C1CC(=O)N(CCNC(=O)C2CC(=O)N(CCNC(=O)C3CC(=O)N(CCSSCCN4CC(C(=O)NCCN5CC(C(=O)NCCN6CC(C(=O)OC)CC6=O)CC5=O)CC4=O)C3)C2)C1 (stereo not drawn) [Compound 35],301 nm,277 nm,5.8,–,–,–,–,–,–
"O=C1CCC(C(=O)O)N1 (stereo not drawn) [2-Pyrrolidone-5-carboxylic acid, reference compound]",385 nm,245 nm,11.8,–,–,–,–,–,–
COC(=O)C1CC(=O)N(CCNC(=O)C2CC(=O)N(CCNC(=O)C3CC(=O)N(CCNC(=O)C4CC(=O)N(CCSSCCN5CC(C(=O)NCCN6CC(C(=O)NCCN7CC(C(=O)NCCN8CC(C(=O)OC)CC8=O)CC7=O)CC6=O)CC5=O)C4)C3)C2)C1 (stereo not drawn) [Compound 37],–,–,–,302 nm,268 nm,7.0,565 nm,260 nm,6.5
"c1ccc(C2=NCCN2)cc1 [2-Phenyl-2-imidazoline, reference compound]",400 nm,340 nm,50.1,–,–,–,–,–,–
NCCNC(=O)C1CC(=O)N(CCNC(=O)C2CC(=O)N(CCN3CC(C(=O)NCCN4CC(C(=O)NCCN)CC4=O)CC3=O)C2)C1 (stereo not drawn) [Compound 41],–,–,–,390 nm,340 nm,62.7,455 nm,285 nm,18.7
COC(=O)C1CC(=O)N(CCN2CC(C(=O)OC)CC2=O)C1 (stereo not drawn) [Compound 38],410 nm,335 nm,2.7,–,–,–,–,–,–
COC(=O)C1CC(=O)N(CCNC(=O)C2CC(=O)N(CCSSCCN3CC(C(=O)NCCN4CC(C(=O)OC)CC4=O)CC3=O)C2)C1 (stereo not drawn) [Compound 33],380 nm,320 nm,391.7,–,–,–,–,–,–
NCCNC(=O)C1CC(=O)N(CCNC(=O)C2CC(=O)N(CCNC(=O)C3CC(=O)N(CCN4CC(C(=O)NCCN5CC(C(=O)NCCN6CC(C(=O)NCCN)CC6=O)CC5=O)CC4=O)C3)C2)C1 (stereo not drawn) [Compound 43],440 nm,355 nm,22.8,–,–,–,–,–,–
"O=C([O-])c1ccccc1-c1c2ccc(=O)cc-2oc2cc([O-])ccc12.[Na+].[Na+] [Fluorescein-Na, reference compound]",510 nm,470 nm,"1,000,000.0",–,–,–,–,–,–
COC(=O)C1CC(=O)N(CCNC(=O)C2CC(=O)N(CCN3CC(C(=O)NCCN4CC(C(=O)OC)CC4=O)CC3=O)C2)C1 (stereo not drawn) [Compound 40],390 nm,305 nm,66.4,–,–,–,–,–,–
COC(=O)C1CC(=O)N(CCNC(=O)C2CC(=O)N(CCNC(=O)C3CC(=O)N(CCN4CC(C(=O)NCCN5CC(C(=O)NCCN6CC(C(=O)OC)CC6=O)CC5=O)CC4=O)C3)C2)C1 (stereo not drawn) [Compound 42],405 nm,335 nm,30.7,–,–,–,–,–,–
COC(=O)C1CC(=O)N(CCSSCCN2CC(C(=O)OC)CC2=O)C1 (stereo not drawn) [Compound 31],350 nm,300 nm,18.7,–,–,–,–,–,–
NCCNC(=O)C1CC(=O)N(CCN2CC(C(=O)NCCN)CC2=O)C1 (stereo not drawn) [Compound 39],–,–,–,415 nm,355 nm,37.8,420 nm,245 nm,11.1
COC(=O)C1CC(=O)N(CCNC(=O)C2CC(=O)N(CCNC(=O)C3CC(=O)N(CCNC(=O)C4CC(=O)N(CCN5CC(C(=O)NCCN6CC(C(=O)NCCN7CC(C(=O)NCCN8CC(C(=O)OC)CC8=O)CC7=O)CC6=O)CC5=O)C4)C3)C2)C1 (stereo not drawn) [Compound 44],450 nm,350 nm,14.5,–,–,–,–,–,–
